This assay deals with T1, p53 Y220C (Homo sapiens, UniProt P04637, Y220C).
T1 construct: The recombinant protein was a truncation mutant containing only amino acids 94-312 of p53; made in house; host or cells: E. coli
T1 sequence (P04637 94-312, change not shown): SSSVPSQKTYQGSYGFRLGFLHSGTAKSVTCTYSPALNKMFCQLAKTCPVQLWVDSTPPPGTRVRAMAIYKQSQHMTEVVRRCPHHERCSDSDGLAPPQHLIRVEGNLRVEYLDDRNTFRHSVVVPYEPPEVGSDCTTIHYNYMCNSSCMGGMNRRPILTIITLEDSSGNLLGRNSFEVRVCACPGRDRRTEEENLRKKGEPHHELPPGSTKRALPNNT
In words: In vitro DNA binding activity assay (HTRF / TR-FRET): stabilization of p53 Y220C and increase of its DNA binding activity. In kind it is biochemical. Particulars: recombinant His-tagged p53 Y220C DNA binding domain (aa 94-312), biotin-labeled consensus DNA, incubated at 27° C. or 29° C. for 60 min. In outline: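 E. coli His-p53 Y220C + biotin consensus DNA; anti-His-APC/SA-Eu TR-FRET. SC150 vs no-compound.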
Consider `COCC(O)CN1CCC(Nc2cccc3c2cc(C#CCNc2ccc(S(C)(=O)=O)cc2OC)n3CCC(F)(F)F)CC1` (stereo not shown) [Compound 711A, 1-{4-[(2-{3-[(4-methanesulfonyl-2-methoxyphenyl)amino]prop-1-yn-1-yl}-1-(3,3,3-trifluoropropyl)-1H-indol-4-yl)amino]piperidin-1-yl}-3-methoxypropan-2-ol], for which the “SC150 (concentration of the compound required to increase the DNA binding activity by 50%)” value was “++ (++ = 0.05 μM ≤ SC150 < 0.1 μM)”.

As for `COCC(O)CN1CCC(Nc2cccc3c2cc(C#CCNc2ccc(S(C)(=O)=O)cc2OC)n3CC(C)(F)F)CC1` (stereo not shown) [Compound 712A, 1-(4-{[1-(2,2-difluoropropyl)-2-{3-[(4-methanesulfonyl-2-methoxyphenyl)amino]prop-1-yn-1-yl}-1H-indol-4-yl]amino}piperidin-1-yl)-3-methoxypropan-2-ol], the “SC150 (concentration of the compound required to increase the DNA binding activity by 50%)” value is “++ (++ = 0.05 μM ≤ SC150 < 0.1 μM)”.

For the compound `COCC(O)CN1CCC(Nc2cccc3c2cc(C#CCNc2ccc(S(C)(=O)=O)cc2Cl)n3CC(F)(F)F)CC1` (stereo not shown) [Compound 713A, 1-{4-[(2-{3-[(2-chloro-4-methanesulfonylphenyl)amino]prop-1-yn-1-yl}-1-(2,2,2-trifluoroethyl)-1H-indol-4-yl)amino]piperidin-1-yl}-3-methoxypropan-2-ol], the “SC150 (concentration of the compound required to increase the DNA binding activity by 50%)” value is listed as “+ (+ = 0 μM ≤ SC150 < 0.05 μM)”.

For the compound `COCC(O)CN1CCC(Nc2cccc3c2cc(C#CCNc2c(F)cc(S(C)(=O)=O)cc2OC)n3CC(F)(F)F)CC1` (stereo not shown) [Compound 714A], the “SC150 (concentration of the compound required to increase the DNA binding activity by 50%)” value was “++++ (++++ = 0.2 μM ≤ SC150 < 1 μM)”.

On to `CCC(=O)O[C@H](COC)CN1CCC(Nc2cccc3c2cc(C#CCNc2ccc(S(C)(=O)=O)cc2OC)n3CC(F)(F)F)CC1` [Compound 715A, (2S)-1-{4-[(2-{3-[(4-methanesulfonyl-2-methoxyphenyl)amino]prop-1-yn-1-yl}-1-(2,2,2-trifluoroethyl)-1H-indol-4-yl)amino]piperidin-1-yl}-3-methoxypropan-2-yl propanoate], for which the “SC150 (concentration of the compound required to increase the DNA binding activity by 50%)” value is “+ (+ = 0 μM ≤ SC150 < 0.05 μM)”.

As for `COCC(O)CN1CCC(Nc2cccc3c2cc(C#CCNc2ccc(Cl)cc2OC)n3CC(F)(F)F)CC1` (stereo not shown) [Compound 716A, 1-{4-[(2-{3-[(4-chloro-2-methoxyphenyl)amino]prop-1-yn-1-yl}-1-(2,2,2-trifluoroethyl)-1H-indol-4-yl)amino]piperidin-1-yl}-3-methoxypropan-2-ol], the “SC150 (concentration of the compound required to increase the DNA binding activity by 50%)” value is listed as “++ (++ = 0.05 μM ≤ SC150 < 0.1 μM)”.

`COc1cc(S(C)(=O)=O)ccc1NCC#Cc1cc2c(NC3CCN(c4nc(C)cs4)CC3)cccc2n1CC(F)(F)F` [Compound 719A]: the “SC150 (concentration of the compound required to increase the DNA binding activity by 50%)” value is given as “+++ (+++ = 0.1 μM ≤ SC150 < 0.2 μM)”.

Take `COc1cc(S(C)(=O)=O)ccc1NCC#Cc1cc2c(NC3CCN(C4CC4)CC3)cccc2n1CC(F)(F)F` [Compound 720A, N-(1-cyclopropylpiperidin-4-yl)-2-{3-[(4-methanesulfonyl-2-methoxyphenyl)amino]prop-1-yn-1-yl}-1-(2,2,2-trifluoroethyl)-1H-indol-4-amine]: the “SC150 (concentration of the compound required to increase the DNA binding activity by 50%)” value is recorded as “+ (+ = 0 μM ≤ SC150 < 0.05 μM)”.

Regarding `COc1cc(C(=O)O)ccc1NCC#Cc1cc2c(NC3CCN(C4CC4)CC3)cccc2n1CC(F)(F)F` [Compound 721A, 4-[(3-{4-[(1-cyclopropylpiperidin-4-yl)amino]-1-(2,2,2-trifluoroethyl)-1H-indol-2-yl}prop-2-yn-1-yl)amino]-3-methoxybenzoic acid], the “SC150 (concentration of the compound required to increase the DNA binding activity by 50%)” value was “+ (+ = 0 μM ≤ SC150 < 0.05 μM)”.

Regarding `COc1cc(S(C)(=O)=O)ccc1NCC#Cc1cc2c(NC3CCN([C@@H]4CCOC4)CC3)cccc2n1CC(F)(F)F` [Compound 722A, 2-{3-[(4-methanesulfonyl-2-methoxyphenyl)amino]prop-1-yn-1-yl}-N-{1-[(3R)-oxolan-3-yl]piperidin-4-yl}-1-(2,2,2-trifluoroethyl)-1H-indol-4-amine], the “SC150 (concentration of the compound required to increase the DNA binding activity by 50%)” value was “+ (+ = 0 μM ≤ SC150 < 0.05 μM)”.

With `COc1cc(S(C)(=O)=O)ccc1NCC#Cc1cc2c(NC3CCN([C@H]4CCOC4)CC3)cccc2n1CC(F)(F)F` [Compound 723A, 2-{3-[(4-methanesulfonyl-2-methoxyphenyl)amino]prop-1-yn-1-yl}-N-{1-[(3S)-oxolan-3-yl]piperidin-4-yl}-1-(2,2,2-trifluoroethyl)-1H-indol-4-amine], the “SC150 (concentration of the compound required to increase the DNA binding activity by 50%)” value is “+ (+ = 0 μM ≤ SC150 < 0.05 μM)”.

As for `COc1cc(C(=O)O)ccc1NCC#Cc1cc2c(NC3CCN(C4CCOCC4)CC3)cccc2n1CC(F)(F)F` [Compound 724A, 3-methoxy-4-{1[3-(4-{[1-(oxan-4-yl)piperidin-4-yl]amino}-1-(2,2,2-trifluoroethyl)-1H-indol-2-yl)prop-2-yn-1-yl]amino}benzoic acid], the “SC150 (concentration of the compound required to increase the DNA binding activity by 50%)” value is listed as “+ (+ = 0 μM ≤ SC150 < 0.05 μM)”.

For the compound `CC(=O)N1CCC(Nc2cccc3c2cc(C#CCNc2ccc(S(C)(=O)=O)cc2OCC#N)n3CC(F)(F)F)CC1` [Compound 729A, 2-{2-[(3-{4-[(1-acetylpiperidin-4-yl)amino]-1-(2,2,2-trifluoroethyl)-1H-indol-2-yl}prop-2-yn-1-yl)amino]-5-methanesulfonylphenoxy}acetonitrile], the “SC150 (concentration of the compound required to increase the DNA binding activity by 50%)” value is recorded as “+ (+ = 0 μM ≤ SC150 < 0.05 μM)”.

Regarding `COc1cc(S(=O)(=O)N(C)C)ccc1NCC#Cc1cc2c(NC3CCN(C(=O)CO)CC3)cccc2n1CC(F)(F)F` [Compound 730A], the “SC150 (concentration of the compound required to increase the DNA binding activity by 50%)” value is on record as “+ (+ = 0 μM ≤ SC150 < 0.05 μM)”.

As to `CS(=O)(=O)c1ccc(NCC#Cc2cc3c(NC4CCN(C(=O)CO)CC4)cccc3n2CC(F)(F)F)c(O)c1` [Compound 731A, 2-hydroxy-1-{4-[(2-{3-[(2-hydroxy-4-methanesulfonylphenyl)amino]prop-1-yn-1-yl}-1-(2,2,2-trifluoroethyl)-1H-indol-4-yl)amino]piperidin-1-yl}ethan-1-one], the “SC150 (concentration of the compound required to increase the DNA binding activity by 50%)” value is on record as “+ (+ = 0 μM ≤ SC150 < 0.05 μM)”.

Turning to `COc1cc(S(N)(=O)=O)ccc1NCC#Cc1cc2c(N[C@H]3CCN(C(C)=O)[C@@H](C)C3)cccc2n1CC(F)(F)F` [Compound 740A, 4-{[3-(4-{[(2S, 4S)-1-acetyl-2-methylpiperidin-4-yl]amino}-1-(2,2,2-trifluoroethyl)-1H-indol-2-yl)prop-2-yn-1-yl]amino}-3-methoxybenzene-1-sulfonamide], the “SC150 (concentration of the compound required to increase the DNA binding activity by 50%)” value is reported as “+ (+ = 0 μM ≤ SC150 < 0.05 μM)”.

With `COCC(=O)N1CCC(Nc2cccc3c2cc(C#CCNc2ccc(S(C)(=O)=O)cc2OC)n3CC(F)(F)F)CC1` [Compound 741A, 1-{4-[(2-{3-[(4-methanesulfonyl-2-methoxyphenyl)amino]prop-1-yn-1-yl}-1-(2,2,2-trifluoroethyl)-1H-indol-4-yl)amino]piperidin-1-yl}-2-methoxyethan-1-one], the “SC150 (concentration of the compound required to increase the DNA binding activity by 50%)” value is reported as “+ (+ = 0 μM ≤ SC150 < 0.05 μM)”.

With `COc1cc(S(C)(=O)=O)ccc1NCC#Cc1cc2c(NC3CCN(C(=O)C(C)O)CC3)cccc2n1CC(F)(F)F` (stereo not shown) [Compound 742A], the “SC150 (concentration of the compound required to increase the DNA binding activity by 50%)” value is recorded as “+ (+ = 0 μM ≤ SC150 < 0.05 μM)”.

Regarding `COc1cc(S(N)(=O)=O)ccc1NCC#Cc1cc2c(NC3CCN(C(=O)C(C)O)CC3)cccc2n1CC(F)(F)F` (stereo not shown) [Compound 745A], the “SC150 (concentration of the compound required to increase the DNA binding activity by 50%)” value is “+ (+ = 0 μM ≤ SC150 < 0.05 μM)”.

In the case of `COc1cc(S(C)(=O)=O)ccc1NCC#Cc1cc2c(NC3CCN(C(=O)CC#N)CC3)cccc2n1CC(F)(F)F` [Compound 746A], the “SC150 (concentration of the compound required to increase the DNA binding activity by 50%)” value is reported as “+ (+ = 0 μM ≤ SC150 < 0.05 μM)”.

Turning to `COc1cc(S(N)(=O)=O)ccc1NCC#Cc1cc2c(NC3CCN(C(=O)CC#N)CC3)cccc2n1CC(F)(F)F` [Compound 747A], the “SC150 (concentration of the compound required to increase the DNA binding activity by 50%)” value was “+ (+ = 0 μM ≤ SC150 < 0.05 μM)”.

In the case of `COc1cc(S(N)(=O)=O)ccc1NCC#Cc1cc2c(NC3CCN(C(=O)CO)CC3)cccc2n1CC(F)(F)F` [Compound 748A], the “SC150 (concentration of the compound required to increase the DNA binding activity by 50%)” value is recorded as “+ (+ = 0 μM ≤ SC150 < 0.05 μM)”.

With `COc1cc(S(N)(=O)=O)ccc1NCC#Cc1cc2c(NC3CCN(C(C)=O)CC3)cccc2n1CC(F)(F)F` [Compound 749A, 4-[(3-{4-[(1-acetylpiperidin-4-yl)amino]-1-(2,2,2-trifluoroethyl)-1H-indol-2-yl}prop-2-yn-1-yl)amino]-3-methoxybenzene-1-sulfonamide], the “SC150 (concentration of the compound required to increase the DNA binding activity by 50%)” value is on record as “+ (+ = 0 μM ≤ SC150 < 0.05 μM)”.

As to `COc1cc(S(C)(=O)=O)ccc1NCC#Cc1cc2c(NC3CCN(C(=O)CN(C)C)CC3)cccc2n1CC(F)(F)F` [Compound 750A], the “SC150 (concentration of the compound required to increase the DNA binding activity by 50%)” value is recorded as “+ (+ = 0 μM ≤ SC150 < 0.05 μM)”.

As for `COc1cc(S(N)(=O)=O)ccc1NCC#Cc1cc2c(NC3CCN(C(=O)CN(C)C)CC3)cccc2n1CC(F)(F)F` [Compound 751A], the “SC150 (concentration of the compound required to increase the DNA binding activity by 50%)” value is reported as “+ (+ = 0 μM ≤ SC150 < 0.05 μM)”.

With `COc1cc(S(C)(=O)=O)ccc1NCC#Cc1cc2c(NC3CCN(C(=O)C(C)C)CC3)cccc2n1CC(F)(F)F` [Compound 752A], the “SC150 (concentration of the compound required to increase the DNA binding activity by 50%)” value is recorded as “+ (+ = 0 μM ≤ SC150 < 0.05 μM)”.

For `COc1cc(S(N)(=O)=O)ccc1NCC#Cc1cc2c(NC3CCN(C(=O)C(C)C)CC3)cccc2n1CC(F)(F)F` [Compound 753A], the “SC150 (concentration of the compound required to increase the DNA binding activity by 50%)” value is given as “+ (+ = 0 μM ≤ SC150 < 0.05 μM)”.

As to `COc1cc(S(=O)(=O)N(C)C)ccc1NCC#Cc1cc2c(NC3CCN(C(C)=O)CC3)cccc2n1CC(F)(F)F` [Compound 755A, 4-[(3-{4-[(1-acetylpiperidin-4-yl)amino]-1-(2,2,2-trifluoroethyl)-1H-indol-2-yl}prop-2-yn-1-yl)amino]-3-methoxy-N,N-dimethylbenzene-1-sulfonamide], the “SC150 (concentration of the compound required to increase the DNA binding activity by 50%)” value is “+ (+ = 0 μM ≤ SC150 < 0.05 μM)”.
